Tests used:
[1] = system: TGF-β1 Smad⅔ signaling pathway in NK cells; experiment: Phospho-Smad⅔ assay in NK cells co-cultured with GSCs; format: cell-based, human; settings: healthy control NK cells + GSCs; inhibitor 10 μM
Description: (§1) GSCs and purified NK cells were co-cultured for 48 hours in the presence of anti-TGFβ 123 (5 μg/ml) (R&D), HLA-ABC blocking antibody (clone W 6/32, Biolegend), CD44 blocking antibody (clone IM7, Biolegend), ILT-2 (CD85J) blocking antibody (clone HP-F1, ThermoFisher), CD155 blocking antibody (clone D171, GenTex), CD112 blocking antibody (clone TX31, Biolegend), 10 μM LY2109761, 10 μM galunisertib (LY2157299), 10 μM Cilengitide (Cayman Chemical) or 1 μM MMP-2/MMP-9 inhibitor I (Millipore). Cytotoxicity assays were then performed as described above.
NK cells were stained with Live/dead-aqua and CD56 ECD (Beckman Coulter) for 20 min in the dark at RT, washed with PBS fixed for 10 min in the dark. After one wash, the cells were permeabilized (Beckman Coulter kit) and stained with p-(5465/5467)-Smad2/p-(5423/5425)/Smad3-Alexa 647 mAb Phosflow antibody (BD Biosciences) for 30 minutes at room temperature. Cells incubated with 10 ng/ml recombinant TGF-β for 45 minutes in 37° C. were used as positive control.

K562 targets = format: cell-based, human; settings: NK cells alone, inhibitor 10 μM, 48 hours
Description: NK cells were co-cultured for 5 hours with K562 or GSCs target cells at an optimized effector:target ratio of 5:1 together with CD107a PE-CF594 (BD Biosciences), monensin (BD GolgiStopTM) and BFA (Brefeldin A, Sigma Aldrich). NK cells were incubated without targets as the negative control and stimulated with PMA (50 ng/mL) and ionomycin ([…], Sigma Aldrich) as positive control. Cells were collected, washed and stained with surface antibodies (mentioned above), fixed/permeabilized (BD Biosciences) and stained with IFN-7 v450 and TNF-α Alexa700 (BD Biosciences) antibodies.
NK cell cytotoxicity was assessed using chromium (siCr) release assay. Briefly, K562 or GSCs target cells were labeled with siCr (PerkinElmer Life Sciences, Boston, Mass.) at 50 μCi/5×10^5 cells for 2 hours. ^51Cr-labeled K562/GSC targets (5×105) were incubated for 4 h with serially diluted magnetically isolated NK cells in triplicate. Supernatants were then harvested and analysed for ^51Cr content.
For studies of NK cell suppression by GSCs and human astrocytes, magnetically selected healthy NK cells were cultured in Serum-free Stem Cell Growth Medium (SCGM; CellGro/CellGenix) supplemented with 5% glutamine, 5 μM HEPES (both from GIBCO/Invitrogen), and 10% FCS (Biosera) in 96-well flat-bottomed plates (Nunc) at 100,000/100D11. NK cells were co-cultured either alone (positive control) or with GSCs or astrocytes at a 1:1 ratio for 48 hours at 37° C. before performing functional assays to assess NK cells cytotoxicity.
as §1

[2] = system: TiNKs / HC-NK cells rendered dysfunctional by GSCs; experiment: Reversal of established NK cell dysfunction (TiNKs ex vivo; NK cell recovery assays); format: cell-based, human
Description: FIGS. 11A-11G. […] (FIG. 11A) NK cells were incubated with or without galunisertinib (10 μM) or LY2109761 (10 μM) for 48 hours. Representative zebra plots show their CD107a, IFN-γ, and TNF-α response to K562 targets. NK cells were gated on CD3-CD56+ lymphocytes. Inset numbers are the percentages of CD107a-, IFN-γ- or TNF-α-positive NK cells within the gated NK cell population. (FIGS. 11B-11C) NK cells were cultured either alone or with GSCs in a 1:1 ratio with or without LY2109761 or galunisertib for 48 hrs. Representative zebra plots and summary box plots show their CD107, IFN-γ, and TNF-α expression response to K562 (FIG. 11B) or GSC (FIG. 11C) targets. Effector:target ratio is 5:1. NK cells were defined as CD3-CD56+ lymphocytes. Inset numbers are the percentages of CD107a-, IFN-γ- or TNF-α-positive NK cells (n=7, n=4 respectively). (FIG. 11D) TiNK cells were cultured for 24 hours in media with 5 ng/ml IL-15 with or without galunisertib. Representative zebra plots and bar graph summary show their CD107, IFN-γ, and TNF-α response to K562 targets. Effector:target ratio is 5:1. NK cells were gated on CD3-CD56+ lymphocytes. Inset numbers are the percentages of CD107a-, IFN-γ- or TNF-α-positive NK cells within the indicated regions. (n=3). (FIG. 11E) TiNK cells and paired PB-NK cells from GBM patients were cultured in the presence or absence of galunisertib for 12 hours. The bar graphs summarize the mean fluorescence intensity (MFI) for their p-Smad⅔ expression. Paired t test was performed to determine statistical significance (n=3). (FIG. 11F) Specific lysis (^51Cr release assay) of K562 targets by NK cells. After 48 hours of culture alone (blue lines) or with GSCs, healthy donor NK cells were either left with GSCs (red lines), or purified and re-suspended in media for another 48 hours (black lines). NK cells were then collected and used for ^51Cr release assay (n=4). (FIG. 11G) Specific lysis (^51Cr release assay) of K562 targets by NK cells. After 48 hours of culture alone (blue lines) or with GSCs, healthy donor NK cells were either left with GSCs ([…]) or purified and cultured in SCGM media plus 5 ng/ml IL-15 with (black lines) or without galunisertib (10 μM) (gray lines) for […]. At the end of the culture period, their cytotoxicity was tested against k562 targets by ^51Cr release assay (n=4).
NK cells were cultured either with GSCs in a 1:1 ratio or alone for 48 hours. After 48 hours of co-incubation, NK cells were then either purified again by bead selection and resuspended in SCGM media or remained in culture with GSCs for an additional 48 hours and then used for ^51Cr release assay. In a second assay, after reselection, NK cells were cultured for another 5 days in SCGM in the presence of 5 ng/ml IL-15 with or without 10 μM galunisertib before use for ^51Cr release assay.

[3] = literature; cited from earlier work

Cc1cccc(-c2nn3c(c2-c2ccnc4ccc(C(N)=O)cc24)CCC3)n1 [galunisertib]
p-Smad⅔ expression (MFI) in NK cells co-cultured with GSCs [1]: prevented GSCs from activating the TGF-β1 Smad⅔ signaling pathway in NK cells | NK cell function (CD107a, IFN-γ, TNF-α response to K562), NK cells without GSCs (K562 targets): neither inhibitor affected NK cell function | reversal of GSC-induced dysfunction of HC-NK cells ([2]; NK cells purified after 48 hours with GSCs, then IL-15 5 ng/ml with or without galunisertib 10 μM): did not reverse the dysfunction of HC-NK cells induced by GSCs | restoration of TiNK function (specific lysis of K562; CD107, IFN-γ, TNF-α) ([2]; TiNKs cultured 24 hours, galunisertib 10 μM or IL-15 5 ng/ml): failed to inactivate the TGF-β1 Smad⅔ signaling pathway and restore NK cell dysfunction | TGF-β1 Smad⅔ signaling in TiNKs ([2]; TiNKs from GBM patients cultured ex vivo, galunisertib 12 hours or IL-15): failed to inactivate the TGF-β1 Smad⅔ signaling pathway | safety in glioblastoma patients [3]: has been used safely in GBM patients
